Values quoted from earlier work in patent US6610297B1, “Peptide immunogens for vaccination against and treatment of allergy” (Novartis AG, priority 1996, dated 2003).

Biological target: T1, FcεRI (Homo sapiens, UniProt P12319)
T1 sequence (P12319 26-257): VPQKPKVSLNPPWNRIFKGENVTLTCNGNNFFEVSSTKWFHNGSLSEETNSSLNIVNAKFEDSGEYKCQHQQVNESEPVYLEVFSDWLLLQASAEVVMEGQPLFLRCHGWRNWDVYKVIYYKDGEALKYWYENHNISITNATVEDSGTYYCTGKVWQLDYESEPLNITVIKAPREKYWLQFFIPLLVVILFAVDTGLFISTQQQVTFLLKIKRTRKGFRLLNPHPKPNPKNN
Conditions: read-out: affinity of IgE for FcεRI (Kd); cited from earlier work

In the case of immunoglobulin E [IgE], the Kd is given as roughly 100 pM.
